Data taken from patent US6440437B1, “Wet wipes having skin health benefits” (Kimberly-Clark Worldwide, Inc., priority 2000, dated 2002).

System: EpiDerm™ skin model (Epi-200)
Assay: EpiDerm skin model: barrier against trypsin and IL-1α pro-inflammatory response
Format: cell-based, human
Details: 15 microliters formulation 30 min before 10 microliters of 200 μg/ml trypsin; media assayed by ELISA after 6 hours
Protocol: The EpiDerm™ skin model (Epi-200, Mattek Corporation, Ashland, Mass.) was used to assess the ability of the lipid-enriched wet wipe formulations to enhance skin barrier against permeation of trypsin (a skin irritating, fecal enzyme) and prevent a Interleukin-1α (IL-1α) response which is a measure of inflammation.
Test formulations (15 microliters) were added to the surface of the EpiDerm™ skin model and incubated for 30 minutes at 37° C., 5% CO2 prior to dosing with the fecal enzyme, trypsin. The study was conducted using Epi-200 assay media devoid of hydrocortisone and pH indicator that was prepared by the manufacturer. After 30 minutes, the underlying media was removed and replaced with fresh, pre-warmed media followed by application of 10 microliters of 200 μg/ml of trypsin. The skin wells were incubated for 6 hours before the underlying media was removed and stored for further analysis. […] Also, the amount of IL-1α in the media was measured using commercially available ELISA kits (Quantikine™ Human IL-1α Immunoassay, R&D Systems, Minneapolis, Minn.) specific for IL-1α to assess the ability of the formulations to prevent a pro-inflammatory response by the enzyme compared to the no treatment control.

trypsin
Irritation: Pro-inflammatory Response (IL-1α), Average IL-1α: 108.7
